Activity calls are given as the source filed them. No cut-off for these calls is given here.
Key:
Mus musculus [1] = assay: Hypnotic activity in fasted C57BL/6N mouse assessed as increase in pentobarbital-induced sleep duration at 2.5 mg/kg, po administered 45 mins prior to pentobarbital-induction coadministered with flumazenil by polysomnographic analysis; format: functional, organism-based; parameters: dose 2.5 mg/kg
Mus musculus [2] = assay: Hypnotic activity in fasted C57BL/6N mouse assessed as […] in latency of pentobarbital-induced sleep at 10 mg/kg, po administered 45 mins prior to pentobarbital-induction by polysomnographic analysis; format: functional, organism-based; parameters: dose 10 mg/kg
Mus musculus [3] = assay: Hypnotic activity in fasted C57BL/6N mouse assessed as increase in pentobarbital-induced sleep duration at 10 mg/kg, po administered 45 mins prior to pentobarbital-induction by polysomnographic analysis; format: functional, organism-based; parameters: dose 10 mg/kg
Mus musculus [4] = assay: Hypnotic activity in fasted C57BL/6N mouse assessed as increase in pentobarbital-induced sleep duration at 10 mg/kg, po administered 45 mins prior to pentobarbital-induction coadministered with flumazenil by polysomnographic analysis; format: functional, organism-based; parameters: dose 10 mg/kg
Mus musculus [5] = assay: Hypnotic activity in fasted C57BL/6N mouse assessed as decrease in pentobarbital-induced sleep latency at 10 mg/kg, po administered 45 mins prior to pentobarbital-induction coadministered with flumazenil by polysomnographic analysis; format: functional, organism-based; parameters: dose 10 mg/kg
Mus musculus [6] = assay: Hypnotic activity in po dosed fasted C57BL/6N mouse assessed as decrease in latency of pentobarbital-induced sleep at 2 mg/kg, po administered 45 mins prior to pentobarbital-induction by polysomnographic analysis; format: functional, organism-based; parameters: dose 2 mg/kg
Mus musculus [7] = assay: Hypnotic activity in po dosed fasted C57BL/6N mouse assessed as decrease in pentobarbital-induced non-rapid eye movement sleep duration at 2 mg/kg, po administered 45 mins prior to pentobarbital-induction by polysomnographic analysis; format: functional, organism-based; parameters: dose 2 mg/kg
Mus musculus [8] = assay: Hypnotic activity in po dosed fasted C57BL/6N mouse assessed as effect on pentobarbital-induced rapid eye movement sleep duration at 2 mg/kg, po administered 45 mins prior to pentobarbital-induction by polysomnographic analysis; format: functional, organism-based; parameters: dose 2 mg/kg
Mus musculus [9] = assay: Hypnotic activity in po dosed fasted C57BL/6N mouse assessed as increase in pentobarbital-induced non-rapid eye movement sleep duration at 2 mg/kg, po administered 45 mins prior to pentobarbital-induction measured up to 2 hrs by polysomnographic analysis; format: functional, organism-based; parameters: dose 2 mg/kg
Mus musculus [10] = assay: Hypnotic activity in po dosed fasted C57BL/6N mouse assessed as change in pentobarbital-induced non-rapid eye movement sleep duration at 2 mg/kg, po administered 45 mins prior to pentobarbital-induction measured up to 3 hrs by polysomnographic analysis; format: functional, organism-based; parameters: dose 2 mg/kg
Mus musculus [11] = assay: Hypnotic activity in po dosed fasted C57BL/6N mouse assessed as change in pentobarbital-induced rapid eye movement sleep duration at 2 mg/kg, po administered 45 mins prior to pentobarbital-induction measured up to 3 hrs by polysomnographic analysis; format: functional, organism-based; parameters: dose 2 mg/kg
Mus musculus [12] = assay: Hypnotic activity in po dosed fasted C57BL/6N mouse assessed as decrease in pentobarbital-induced non-rapid eye movement sleep EEG delta activity at 2 mg/kg, po administered 45 mins prior to pentobarbital-induction by polysomnographic analysis; format: functional, organism-based; parameters: dose 2 mg/kg
Mus musculus [13] = assay: Hypnotic activity in fasted C57BL/6N mouse assessed as increase in pentobarbital-induced sleep duration at 0.5 mg/kg, po administered 45 mins prior to pentobarbital-induction coadministered with flumazenil by polysomnographic analysis; format: functional, organism-based; parameters: dose 0.5 mg/kg
Mus musculus [14] = assay: Hypnotic activity in fasted C57BL/6N mouse assessed as increase in pentobarbital-induced sleep duration at 2 mg/kg, po administered 45 mins prior to pentobarbital-induction coadministered with flumazenil by polysomnographic analysis; format: functional, organism-based; parameters: dose 2 mg/kg
Mus musculus [15] = assay: Hypnotic activity in fasted C57BL/6N mouse assessed as decrease in pentobarbital-induced sleep latency at 2 mg/kg, po administered 45 mins prior to pentobarbital-induction coadministered with flumazenil by polysomnographic analysis; format: functional, organism-based; parameters: dose 2 mg/kg
[16] = Displacement of [3H]flumazenil from GABA(A)-BZD receptor in Sprague-Dawley rat cerebral cortex membranes after 40 mins by liquid scintillation counting; format: cell membranes, Membrane
Mus musculus [17] = assay: Hypnotic activity in po dosed fasted C57BL/6N mouse assessed as decrease in latency of pentobarbital-induced sleep administered 45 mins prior to pentobarbital-induction by polysomnographic analysis; format: functional, organism-based
Mus musculus [18] = assay: Hypnotic activity in po dosed fasted C57BL/6N mouse assessed as increase in pentobarbital-induced sleep duration administered 45 mins prior to pentobarbital-induction by polysomnographic analysis; format: functional, organism-based
Mus musculus [19] = assay: Hypnotic activity in fasted C57BL/6N mouse assessed as […] in latency of pentobarbital-induced sleep at 50 mg/kg, po administered 45 mins prior to pentobarbital-induction by polysomnographic analysis; format: functional, organism-based; parameters: dose 50 mg/kg
Mus musculus [20] = assay: Hypnotic activity in fasted C57BL/6N mouse assessed as increase in pentobarbital-induced sleep duration at 50 mg/kg, po administered 45 mins prior to pentobarbital-induction by polysomnographic analysis; format: functional, organism-based; parameters: dose 50 mg/kg
Mus musculus [21] = assay: Hypnotic activity in fasted C57BL/6N mouse assessed as increase in pentobarbital-induced sleep duration at 50 mg/kg, po administered 45 mins prior to pentobarbital-induction coadministered with flumazenil by polysomnographic analysis; format: functional, organism-based; parameters: dose 50 mg/kg
Mus musculus [22] = assay: Hypnotic activity in fasted C57BL/6N mouse assessed as decrease in latency of pentobarbital-induced sleep at 50 mg/kg, po administered 45 mins prior to pentobarbital-induction coadministered with flumazenil by polysomnographic analysis; format: functional, organism-based; parameters: dose 50 mg/kg

Compound: Cc1ccc(-c2nc3ccc(C)cn3c2CC(=O)N(C)C)cc1
- Activity (Mus musculus [1]): inactive
- Activity (Mus musculus [2]): Active
- Activity (Mus musculus [3]): Active
- Activity (Mus musculus [4]): inactive
- Activity (Mus musculus [5]): inactive

Compound: CN1C(=O)CN=C(c2ccccc2)c2cc(Cl)ccc21
- Activity (Mus musculus [6]): Active
- Activity (Mus musculus [7]): Active
- Activity (Mus musculus [8]): inactive
- Activity (Mus musculus [9]): Active
- Activity (Mus musculus [10]): inactive
- Activity (Mus musculus [11]): inactive
- Activity (Mus musculus [12]): Active
- Activity (Mus musculus [13]): inactive
- Activity (Mus musculus [14]): inactive
- Activity (Mus musculus [15]): inactive

Compound: CC(C)=CCc1cc([C@@H]2CC(=O)c3ccc(O)c(CC=C(C)C)c3O2)ccc1O [GLABROL]
- Ki [16]: 1630 nM
- Activity (Mus musculus [17]): Dose-dependent effect
- Activity (Mus musculus [18]): Dose-dependent effect
- Activity (Mus musculus [19]): Active
- Activity (Mus musculus [20]): Active
- Activity (Mus musculus [21]): inactive
- Activity (Mus musculus [22]): inactive
